From US9751853B2, “Solid forms of 3-(5-amino-2-methyl-4-oxo-4H-quinazolin-3-yl)-piperidine-2,6-dione, and their pharmaceutical compositions and uses” (Celgene Corporation, priority 2011, dated 2017)
“Also recorded” adds a separate entry of the source.

How the values were obtained:
Type in all cases: physicochemical
Solubility by HPLC = conditions: thermodynamic from solid, room temperature
Description: Solubility by HPLC: Solubility of Form A in selected aqueous and organic solvents was determined by mixing solid with solvents at room temperature. The samples were filtered after 24 hr of agitation and quantified by an HPLC method, except for DMSO, for which the solubility was measured after 1 hr of agitation.

[1] = Equilibration/slurry experiments, solid form by XRPD
Description: (§1) Equilibration/Slurry and Evaporation: Equilibration and evaporation experiments were carried out by adding an excess of Compound A hydrochloride to about 2 mL of a test solvent. The resulting mixture was agitated for at least 24 hrs at about 25° C. or about 50° C. Upon reaching equilibrium, the saturated solution was removed and allowed to evaporate slowly in an open vial under nitrogen at about 25° C. and about 50° C., respectively. The solids resulting from the equilibration were filtered and dried in the air.
(§2) X-ray Powder Diffraction (XRPD): XRPD analysis was conducted on a Thermo ARL X'TRA™ X-ray powder diffractometer using Cu Kα radiation at 1.54 Å. The instrument was equipped with a fine focus X-ray tube. The voltage and amperage of X-ray generator were set at 45 kV and 40 mA, respectively. The divergence slices were set at 4 mm and 2 mm and the measuring slices were set at 0.5 mm and 0.2 mm. Diffracted radiation was detected by a peltier-cooled Si(Li) solid-state detector. A theta-two theta continuous scan at 2.40°/min (0.5 sec/0.02° step) from 1.5°2θ to 40°2θ was used. A sintered alumina standard was used to check the peak position. In general, positions of XRPD peaks are expected to individually vary on a measurement-by-measurement basis by about +0.2°2θ. In general, as understood in the art, two XRPD patterns match one another if the characteristic peaks of the first pattern are located at approximately the same positions as the characteristic peaks of the second pattern. As understood in the art, determining whether two XRPD patterns match or whether individual peaks in two XRPD patterns match may require consideration of individual variables and parameters such as, but not limited to, preferred orientation, phase impurities, degree of crystallinity, particle size, variation in diffractometer instrument setup, variation in XRPD data collection parameters, and/or variation in XRPD data processing, among others. The determination of whether two patterns match may be performed by eye and/or by computer analysis.

[2] = Evaporation experiments, solid form by XRPD
Description: as §1, §2

Cc1nc2cccc(N)c2c(=O)n1C1CCC(=O)NC1=O.Cl (stereo not drawn) [Form A1, 3-(5-amino-2-methyl-4-oxo-4H-quinazolin-3-yl)-piperidine-2,6-dione hydrochloride]
solubility at 24 h (Solubility by HPLC; aqueous buffer, Acetate buffer (pH 4.0)): 310 µg/mL
solubility at 24 h (Solubility by HPLC; aqueous buffer, Phosphate buffer (pH 6.8)): 30 µg/mL
solubility at 24 h (Solubility by HPLC; organic solvent or mixture, Acetone): 2550 µg/mL
solubility at 24 h (Solubility by HPLC; organic solvent or mixture, Acetonitrile (AcCN)): 20 µg/mL
solubility at 1 h (Solubility by HPLC; organic solvent or mixture, Dimethyl Sulfoxide (DMSO), 1 hr of agitation): 21900 µg/mL
solubility at 24 h (Solubility by HPLC; organic solvent or mixture, Ethyl acetate (EtOAc)): < 1 µg/mL
solubility at 24 h (Solubility by HPLC; organic solvent or mixture, Heptane): < 1 µg/mL
solubility at 24 h (Solubility by HPLC; organic solvent or mixture, Isopropanol (iPrOH)): 20 µg/mL
solubility at 24 h (Solubility by HPLC; organic solvent or mixture, Methanol (MeOH)): 270 µg/mL
solubility at 24 h (Solubility by HPLC; organic solvent or mixture, Tetrahydrofuran (THF)): < 5 µg/mL
solubility at 24 h (Solubility by HPLC; organic solvent or mixture, Toluene): < 5 µg/mL
solubility at 24 h (Solubility by HPLC; saline or isotonic, 0.9% NaCl): 1900 µg/mL
solubility at 24 h (Solubility by HPLC; simulated gastric fluid, 0.1N HCl): 5340 µg/mL
solubility at 24 h (Solubility by HPLC; Water): 1710 µg/mL
XRPD Result after equilibration ([1]; slurry at 50° C., 2-Propanol): Form A1
XRPD Result after equilibration ([1]; slurry at 50° C., Acetone): Form A1
XRPD Result after equilibration ([1]; slurry at 50° C., Acetonitrile): Form A1
XRPD Result after equilibration ([1]; slurry at 50° C., Acetonitrile/Water (1:1)): Form A + Form A1
XRPD Result after equilibration ([1]; slurry at 50° C., Ethanol): Form A1
XRPD Result after equilibration ([1]; slurry at 50° C., Ethanol/Water (1:1)): Form A + Form A1
XRPD Result after equilibration ([1]; slurry at 50° C., Ethyl acetate): Form A1
XRPD Result after equilibration ([1]; slurry at 50° C., Heptane): Form A1
XRPD Result after equilibration ([1]; slurry at 50° C., Methanol): Form A1
XRPD Result after equilibration ([1]; slurry at 50° C., Methyl ethyl ketone): Form A1
XRPD Result after equilibration ([1]; slurry at 50° C., Tetrahydrofuran): Form A1
XRPD Result after equilibration ([1]; slurry at 50° C., Tetrahydrofuran/Water (1:1)): Form A1
XRPD Result after equilibration ([1]; slurry at 50° C., Toluene): Form A1
XRPD Result after equilibration ([1]; slurry at 50° C., Water): Form A + Form A1
XRPD Result after equilibration ([1]; slurry at 50° C., n-Butanol): Form A1
XRPD Result after equilibration ([1]; slurry at room temperature, 2-Propanol): Form A1
XRPD Result after equilibration ([1]; slurry at room temperature, Acetone): Form A1
XRPD Result after equilibration ([1]; slurry at room temperature, Acetonitrile): Form A1
XRPD Result after equilibration ([1]; slurry at room temperature, Acetonitrile/Water (1:1)): Form A + Form A1
XRPD Result after equilibration ([1]; slurry at room temperature, Ethanol): Form A1
XRPD Result after equilibration ([1]; slurry at room temperature, Ethanol/Water (1:1)): Form A + Form A1
XRPD Result after equilibration ([1]; slurry at room temperature, Ethyl acetate): Form A1
XRPD Result after equilibration ([1]; slurry at room temperature, Heptane): Form A1
XRPD Result after equilibration ([1]; slurry at room temperature, Methanol): Form A1
XRPD Result after equilibration ([1]; slurry at room temperature, Methyl ethyl ketone): Form A1
XRPD Result after equilibration ([1]; slurry at room temperature, Methyl t-butyl ether): Form A1
XRPD Result after equilibration ([1]; slurry at room temperature, Methylene chloride): Form A1
XRPD Result after equilibration ([1]; slurry at room temperature, Tetrahydrofuran): Form A1
XRPD Result after equilibration ([1]; slurry at room temperature, Tetrahydrofuran/Water (1:1)): Form A + Form A1
XRPD Result after equilibration ([1]; slurry at room temperature, Toluene): Form A1
XRPD Result after equilibration ([1]; slurry at room temperature, Water): Form A + Form A1
XRPD Result after equilibration ([1]; slurry at room temperature, n-Butanol): Form A1
XRPD Result after evaporation ([2]; evaporation at 50° C., Acetonitrile/Water (1:1)): Form A1
XRPD Result after evaporation ([2]; evaporation at 50° C., Ethanol/Water (1:1)): Form A1
XRPD Result after evaporation ([2]; evaporation at 50° C., Methanol): Form A1
XRPD Result after evaporation ([2]; evaporation at 50° C., Tetrahydrofuran/Water (1:1), hydrochloride): Amorphous
XRPD Result after evaporation ([2]; evaporation at 50° C., Water): Form A1
XRPD Result after evaporation ([2]; evaporation at room temperature, Acetonitrile/Water (1:1)): Form A1
XRPD Result after evaporation ([2]; evaporation at room temperature, Ethanol/Water (1:1)): Form A1
XRPD Result after evaporation ([2]; evaporation at room temperature, Methanol, hydrochloride): Partial or complete salt dissociation; also recorded: Form A + Form A1
XRPD Result after evaporation ([2]; evaporation at room temperature, THF): Partial or complete salt dissociation
XRPD Result after evaporation ([2]; evaporation at room temperature, Tetrahydrofuran/Water (1:1), hydrochloride): Partial or complete salt dissociation; also recorded: Form A + Form A1
XRPD Result after evaporation ([2]; evaporation at room temperature, Water): Form A1
